Assay results taken from PMC6994419, “UDP-N-acetyl-α-D-galactosamine:polypeptide N-acetylgalactosaminyltransferase from the snail Biomphalaria glabrata – structural reflections” (Glycoconjugate Journal, 2019).

Assays:
[1] = target: T1, Bge-ppGalNAcT (Biomphalaria glabrata, UniProt S5S833); experiment: GalNAc transfer to acceptor peptide, reversed-phase HPLC at […] nm; assay type: biochemical; conditions: 40 nmol UDP-GalNAc in 20 μl, 10 mM MnCl2, 50 mM MES pH 7.0, 37 °C, 90 min, acceptor peptide 20 μg
T1 construct: without cytoplasmic tail and transmembrane domain (amino acids 1-26 removed); catalytic plus lectin domain
T1 sequence (S5S833 27-600): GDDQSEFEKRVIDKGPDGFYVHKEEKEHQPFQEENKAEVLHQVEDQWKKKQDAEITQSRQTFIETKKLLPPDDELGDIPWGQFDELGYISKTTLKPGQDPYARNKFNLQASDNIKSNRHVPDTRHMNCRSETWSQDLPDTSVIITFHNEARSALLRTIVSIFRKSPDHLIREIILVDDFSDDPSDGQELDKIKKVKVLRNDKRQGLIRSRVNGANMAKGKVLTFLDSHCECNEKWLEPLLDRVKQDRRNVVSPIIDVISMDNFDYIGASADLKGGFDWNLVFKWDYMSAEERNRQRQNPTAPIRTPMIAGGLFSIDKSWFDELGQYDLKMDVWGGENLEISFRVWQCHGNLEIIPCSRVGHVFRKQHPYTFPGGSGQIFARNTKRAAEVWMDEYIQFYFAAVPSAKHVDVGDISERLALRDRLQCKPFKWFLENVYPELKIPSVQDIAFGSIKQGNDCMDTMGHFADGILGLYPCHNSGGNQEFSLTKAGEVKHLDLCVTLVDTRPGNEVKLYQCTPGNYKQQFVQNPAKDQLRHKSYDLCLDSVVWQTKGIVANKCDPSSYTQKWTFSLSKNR

[2] = target: T2, ΔppGalNAcT (Biomphalaria glabrata, UniProt S5S833); experiment: as above; assay type: biochemical; conditions: 40 nmol UDP-GalNAc in 20 μl, 10 mM MnCl2, 50 mM MES pH 7.0, 37 °C, 90 min, acceptor peptide 20 μg
T2 construct: catalytic part only: amino acids 1-26 and the lectin domain (477-600) removed; Sf9 insect cells, purified
T2 sequence (S5S833 27-476, stated change not applied): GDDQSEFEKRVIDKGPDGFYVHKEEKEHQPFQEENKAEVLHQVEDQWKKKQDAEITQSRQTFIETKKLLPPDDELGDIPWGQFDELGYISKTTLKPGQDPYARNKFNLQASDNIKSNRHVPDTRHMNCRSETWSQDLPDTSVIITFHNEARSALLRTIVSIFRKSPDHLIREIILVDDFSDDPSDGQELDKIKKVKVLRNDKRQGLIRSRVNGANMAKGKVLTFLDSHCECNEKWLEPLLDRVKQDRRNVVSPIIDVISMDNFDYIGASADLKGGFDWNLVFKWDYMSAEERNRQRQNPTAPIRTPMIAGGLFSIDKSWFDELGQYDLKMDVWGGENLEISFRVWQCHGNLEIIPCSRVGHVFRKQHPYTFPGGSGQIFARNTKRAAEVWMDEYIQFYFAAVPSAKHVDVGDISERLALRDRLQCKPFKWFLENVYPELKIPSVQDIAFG

O=c1ccn([C@@H]2O[C@H](COP(=O)(O)OP(=O)(O)O)[C@@H](O)[C@H]2O)c(=O)[nH]1 [UDP]
activity at 0.05-0.75 mM UDP [1]: Only for UDP an inhibition effect was experimentally observed.
activity at 0.05-0.75 mM UDP [2]: No significant differences between the enzyme expressed with lectin domain and the version without
